Assay results taken from the supplement of paper PMC4862054.

Each compound was assayed on CAL-148 (assay: normalised response (% of control), CellTox Green; higher = less cell death (100 = DMSO, 0 = benzethonium chloride kill control)). Conditions: incubation time: 72 h.
Method in brief: (§1)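 Two readouts were taken after 72 h: CellTox Green fluorescence (485/520 nm) first, then CellTiter-Glo luminescence after 10 min at room temperature. Breast cancer cell lines had been seeded as 20 µl suspension into 384-well plates holding compound at 5 concentrations in 10-fold steps across a compound-specific 10,000-fold range. Each value is a normalised signal at a single concentration, with plates scaled to 0.1 % DMSO (100) and a positive kill control (0).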

Row | Compound | normalised response [%]
1 | COc1cc(O)c2c(c1)/C=C/C[C@H](O)[C@H](O)C(=O)/C=C\C[C@H](C)OC2=O [(5Z)-7-Oxozeaenol] (10000 nM) | 56.2
2 | CNC(=O)c1cccc(-c2ccc3c(N4CCOC[C@@H]4C)nc(N4CCOC[C@@H]4C)nc3n2)c1 [AZD2014] (10000 nM) | 58.9
3 | Nc1cc(C(F)(F)F)c(-c2cc(N3CCOCC3)nc(N3CCOCC3)n2)cn1 [Buparlisib] (10000 nM) | 70
4 | CNC(=O)c1ccc(N2C(=S)N(c3ccc(C#N)c(C(F)(F)F)c3)C(=O)C2(C)C)cc1F [Enzalutamide] (10000 nM) | 103
5 | CCOC(=O)CCNc1cc(N2CCc3ccccc3CC2)nc(-c2ccccn2)n1 [GSK-J4] (100000 nM) | 3.2
6 | Cc1cc(Nc2cc(CN3CCOCC3)c3nc(C)c(Cc4ccc(Cl)cc4F)n3n2)n[nH]1 [Gandotinib] (10000 nM) | 69.7
7 | CNC(=O)c1ccc(N2C(=S)N(c3ccc(C#N)c(C(F)(F)F)c3)C(=O)C23CCC3)cc1F [RD162] (10000 nM) | 97.4
8 | S=P(N1CC1)(N1CC1)N1CC1 [Thio-TEPA] (50000 nM) | 89.4

What follows are compounds tested on CAL-51 in the same assay as above. Conditions: incubation time: 72 h.
Method in brief: as §1

Row | Compound | normalised response [%]
9 | CCn1c(-c2nonc2N)nc2cnc(Oc3cccc(NC(=O)c4ccc(OCCN5CCOCC5)cc4)c3)cc21 (10000 nM) | 43.7
10 | COc1cc(O)c2c(c1)/C=C/C[C@H](O)[C@H](O)C(=O)/C=C\C[C@H](C)OC2=O [(5Z)-7-Oxozeaenol] (10000 nM) | 45.5
11 | CNC(=O)c1cccc(-c2ccc3c(N4CCOC[C@@H]4C)nc(N4CCOC[C@@H]4C)nc3n2)c1 [AZD2014] (10000 nM) | 90.1
12 | Nc1cc(C(F)(F)F)c(-c2cc(N3CCOCC3)nc(N3CCOCC3)n2)cn1 [Buparlisib] (10000 nM) | -15.4
13 | CNC(=O)c1ccc(N2C(=S)N(c3ccc(C#N)c(C(F)(F)F)c3)C(=O)C2(C)C)cc1F [Enzalutamide] (10000 nM) | 108
14 | CCOC(=O)CCNc1cc(N2CCc3ccccc3CC2)nc(-c2ccccn2)n1 [GSK-J4] (100000 nM) | -10.9
15 | Cc1cc(Nc2cc(CN3CCOCC3)c3nc(C)c(Cc4ccc(Cl)cc4F)n3n2)n[nH]1 [Gandotinib] (10000 nM) | 24
16 | CNC(=O)c1ccc(N2C(=S)N(c3ccc(C#N)c(C(F)(F)F)c3)C(=O)C23CCC3)cc1F [RD162] (10000 nM) | 109
17 | S=P(N1CC1)(N1CC1)N1CC1 [Thio-TEPA] (50000 nM) | 48.1

Each compound was assayed on MFM-223 in the same assay as above. Conditions: incubation time: 72 h.
Method in brief: as §1

Row | Compound | normalised response [%]
18 | CCn1c(-c2nonc2N)nc2cnc(Oc3cccc(NC(=O)c4ccc(OCCN5CCOCC5)cc4)c3)cc21 (10000 nM) | 93.6
19 | COc1cc(O)c2c(c1)/C=C/C[C@H](O)[C@H](O)C(=O)/C=C\C[C@H](C)OC2=O [(5Z)-7-Oxozeaenol] (10000 nM) | 67.3
20 | CNC(=O)c1cccc(-c2ccc3c(N4CCOC[C@@H]4C)nc(N4CCOC[C@@H]4C)nc3n2)c1 [AZD2014] (10000 nM) | 93.4
21 | Nc1cc(C(F)(F)F)c(-c2cc(N3CCOCC3)nc(N3CCOCC3)n2)cn1 [Buparlisib] (10000 nM) | 81.7
22 | CNC(=O)c1ccc(N2C(=S)N(c3ccc(C#N)c(C(F)(F)F)c3)C(=O)C2(C)C)cc1F [Enzalutamide] (10000 nM) | 106
23 | CCOC(=O)CCNc1cc(N2CCc3ccccc3CC2)nc(-c2ccccn2)n1 [GSK-J4] (100000 nM) | -2.28
24 | Cc1cc(Nc2cc(CN3CCOCC3)c3nc(C)c(Cc4ccc(Cl)cc4F)n3n2)n[nH]1 [Gandotinib] (10000 nM) | 76
25 | CNC(=O)c1ccc(N2C(=S)N(c3ccc(C#N)c(C(F)(F)F)c3)C(=O)C23CCC3)cc1F [RD162] (10000 nM) | 50.8
26 | S=P(N1CC1)(N1CC1)N1CC1 [Thio-TEPA] (50000 nM) | 77.7

These compounds were tested on MDA-MB-436 in the same assay as above. Conditions: incubation time: 72 h.
Method in brief: as §1

Row | Compound | normalised response [%]
27 | CCn1c(-c2nonc2N)nc2cnc(Oc3cccc(NC(=O)c4ccc(OCCN5CCOCC5)cc4)c3)cc21 (10000 nM) | 74.1
28 | COc1cc(O)c2c(c1)/C=C/C[C@H](O)[C@H](O)C(=O)/C=C\C[C@H](C)OC2=O [(5Z)-7-Oxozeaenol] (10000 nM) | 102
29 | CNC(=O)c1cccc(-c2ccc3c(N4CCOC[C@@H]4C)nc(N4CCOC[C@@H]4C)nc3n2)c1 [AZD2014] (10000 nM) | 95
30 | Nc1cc(C(F)(F)F)c(-c2cc(N3CCOCC3)nc(N3CCOCC3)n2)cn1 [Buparlisib] (10000 nM) | 75.9
31 | CNC(=O)c1ccc(N2C(=S)N(c3ccc(C#N)c(C(F)(F)F)c3)C(=O)C2(C)C)cc1F [Enzalutamide] (10000 nM) | 96.1
32 | CCOC(=O)CCNc1cc(N2CCc3ccccc3CC2)nc(-c2ccccn2)n1 [GSK-J4] (100000 nM) | -10.7
33 | Cc1cc(Nc2cc(CN3CCOCC3)c3nc(C)c(Cc4ccc(Cl)cc4F)n3n2)n[nH]1 [Gandotinib] (10000 nM) | 82
34 | CNC(=O)c1ccc(N2C(=S)N(c3ccc(C#N)c(C(F)(F)F)c3)C(=O)C23CCC3)cc1F [RD162] (10000 nM) | 95.4
35 | S=P(N1CC1)(N1CC1)N1CC1 [Thio-TEPA] (50000 nM) | 103

The compounds below were run on MCF-10A in the same assay as above. Conditions: incubation time: 72 h.
Method in brief: as §1

Row | Compound | normalised response [%]
36 | CCn1c(-c2nonc2N)nc2cnc(Oc3cccc(NC(=O)c4ccc(OCCN5CCOCC5)cc4)c3)cc21 (10000 nM) | 93.4
37 | COc1cc(O)c2c(c1)/C=C/C[C@H](O)[C@H](O)C(=O)/C=C\C[C@H](C)OC2=O [(5Z)-7-Oxozeaenol] (10000 nM) | 64.3
38 | CNC(=O)c1cccc(-c2ccc3c(N4CCOC[C@@H]4C)nc(N4CCOC[C@@H]4C)nc3n2)c1 [AZD2014] (10000 nM) | 96
39 | Nc1cc(C(F)(F)F)c(-c2cc(N3CCOCC3)nc(N3CCOCC3)n2)cn1 [Buparlisib] (10000 nM) | 79.4
40 | CNC(=O)c1ccc(N2C(=S)N(c3ccc(C#N)c(C(F)(F)F)c3)C(=O)C2(C)C)cc1F [Enzalutamide] (10000 nM) | 111
41 | CCOC(=O)CCNc1cc(N2CCc3ccccc3CC2)nc(-c2ccccn2)n1 [GSK-J4] (100000 nM) | -83.7
